The values below come from patent publication US11123323B2, “Monoterpenes for treating respiratory disorders, in particular bronchopulmonary disorders” (Maria Clemetine Martin Klosterfrau Vertriebsqesellschaft MBH, priority 2008, dated 2021).

The structures appear in SMILES notation.

The data set concerns patients with persistent bronchial asthma (GINA II). As to the kind of experiment: Clinical add-on therapy with oral 1,8-cineol, persistent bronchial asthma GINA II, 10 patients. Type of data set: in vivo, human. Here is the method: 10 patients 56 to 72 years of age with persistent bronchial asthma (GINA II) treated with a combination therapy of inhalative glucocorticoid (beclometasone, 2×200 μg/day by inhalation) and inhalative long-acting beta-2-sympathomimetics (LABA, salmeterol) and also oral theophyllin were given 1,8-cineol (Soledum® capsules) 4×200 mg/day orally for one week. Even after a one-week therapy at the dose mentioned above, in 8 of the 10 subjects a slight to moderate improvement of lung function was achieved. After continuing therapy for a further twelve weeks, the persistent bronchial asthma had stabilized to such an extent that in 7 of the 10 patients the inhalative glucocorticoid required could be reduced by up to 60% and in 2 of the 10 patients the inhalative glucocorticoids could be discontinued altogether at times. […] In 5 of the patients treated, the betamimetics required, too, could be reduced by up to 40%.

For the compound `CC12CCC(CC1)C(C)(C)O2` [1,8-cineol, 1,3,3-trimethyl-2-oxabicyclo-[2.2.2]-octane], the tolerability result (4×200 mg/day orally) is “tolerated well, without any side-effects”. The “patients in whom the inhalative glucocorticoid required could be reduced” value (4×200 mg/day orally, after a further twelve weeks) is given as 7 of the 10. In addition, the “subjects with a slight to moderate improvement of lung function” value (4×200 mg/day orally, after one week, add-on to beclometasone, salmeterol, theophyllin) is 8 of the 10. For the setting “after a further twelve weeks”, the “patients in whom the inhalative glucocorticoids could be discontinued altogether at times” value is reported as 2 of the 10 and the “reduction of the betamimetics required” value is “up to 40%”. In addition, under “long-term therapy with oral 1,8-cineol, one plus twelve weeks”, the “reduction of the inhalative glucocorticoid (ICS dose) required” value was “up to 60%”. For the setting “of 10 patients treated”, the “patients in whom the betamimetics required could be reduced” value worked out at 5.
